Counter-ions that a name gives are not always drawn.
Molecular target: IRAK4 (Homo sapiens (Human), UniProt Q9NWZ3)
Assay: IRAK4 Kinase Assay
Type: biochemical
Settings: IMAP fluorescence polarization, 0.5 nM GST tagged IRAK4, 100 μM ATP, 30 minutes at 25° C.; read-out: IRAK4 IC50
Protocol: The kinase activity of IRAK4 is determined by its ability to catalyze the phosphorylation of a fluorescent polypeptide substrate. The extent of phosphorylation is measured using the IMAP technology (Molecular Devices) where the phosphorylated fluorescent substrate binds to the large M(III)-based nanoparticles which reduces the rotational speed of the substrate and thus increases its fluorescent polarization (FP).
20 μL reaction mixture contains 10 mM TriHCl, pH 7.2, 0.5 nM GST tagged IRAK4 (SignalChem), 100 nM fluorescent peptide substrate (RP7030, Molecular Devices), 100 μM ATP, 1 mM DDT, 1 mM MgCl2, and 0.01% Tween 20. The reaction is initiated by the addition of ATP. After incubation for 30 minutes at 25° C., 60 μL of Progressive IMAP Reagent (Molecular Devices) is added to stop the reaction. Change in RP7030's FP is determined by a FP reader (Analyst HT, LJL BioSystems).

Chain of IRAK4 (Q9NWZ3 whole entry): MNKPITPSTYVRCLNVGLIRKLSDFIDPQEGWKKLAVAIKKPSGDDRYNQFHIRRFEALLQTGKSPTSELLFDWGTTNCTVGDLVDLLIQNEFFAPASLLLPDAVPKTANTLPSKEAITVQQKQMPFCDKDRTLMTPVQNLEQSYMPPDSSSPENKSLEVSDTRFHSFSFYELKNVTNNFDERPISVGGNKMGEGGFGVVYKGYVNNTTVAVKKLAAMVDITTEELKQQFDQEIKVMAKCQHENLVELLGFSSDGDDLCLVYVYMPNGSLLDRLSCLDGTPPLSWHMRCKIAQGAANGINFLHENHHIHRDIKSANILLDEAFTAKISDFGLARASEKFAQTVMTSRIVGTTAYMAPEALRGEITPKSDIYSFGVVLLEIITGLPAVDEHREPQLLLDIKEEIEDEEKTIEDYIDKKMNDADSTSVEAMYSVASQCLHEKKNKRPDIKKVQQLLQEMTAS

SMILES	IC50 [nM]
N[C@H]1CCCC[C@H]1Nc1ccn2ncc(C(=O)Nc3csc(CO)c3)c2n1 [Example 275, 5-(((1R,2S)-2-Aminocyclohexyl)amino)-N-(5-(hydroxymethyl)thiophen-3-yl)pyrazolo[1,5-a]pyrimidine-3-carboxamide]	17
CC(O)c1cc(NC(=O)c2cnn3ccc(N[C@@H]4CCCC[C@@H]4N)nc23)cs1 (stereo partly drawn) [Example 276, 5-(((1R,2S)-2-Aminocyclohexyl)amino)-N-(5-(1-hydroxyethyl)thiophen-3-yl)pyrazolo[1,5-a]pyrimidine-3-carboxamide]	64
N[C@@H]1CCCC[C@@H]1Nc1ccn2ncc(C(=O)Nc3cnn(-c4cccnc4)c3)c2n1 [Example 278, 5-{[(1S,2R)-2-aminocyclohexyl]amino}-N-(1-pyridin-3-yl-1H-pyrazol-4-yl)pyrazolo[1,5-a]pyrimidine-3-carboxamide trifluoroacetate]	9
COCCc1nn(C)cc1NC(=O)c1cnn2ccc(N[C@@H]3CCCC[C@@H]3N)nc12 [Example 283, 5-{[(1R,2S)-2-aminocyclohexyl]amino}-N-[3-(2-methoxyethyl)-1-methyl-1H-pyrazol-4-yl]pyrazolo[1,5-a]pyrimidine-3-carboxamide trifluoroacetate]	76
Cc1cnc(-c2nn(C)cc2NC(=O)c2cnn3ccc(N[C@@H]4CCCC[C@@H]4N)nc23)o1 [Example 285, 5-{[(1R,2S)-2-aminocyclohexyl]amino}-N-[1-methyl-3-(5-methyl-1,3-oxazol-2-yl)-1H-pyrazol-4-yl]pyrazolo[1,5-a]pyrimidine-3-carboxamide trifluoroacetate]	24
Cn1cc(NC(=O)c2cnn3ccc(N[C@@H]4CCCC[C@@H]4N)nc23)c(-c2nncn2C)n1 [Example 286, 5-{[(1R,2S)-2-aminocyclohexyl]amino}-N-[1-methyl-3-(4-methyl-4H-1,2,4-triazol-3-yl)-1H-pyrazol-4-yl]pyrazolo[1,5-a]pyrimidine-3-carboxamide trifluoroacetate]	7
Cc1nc(-c2nn(C)cc2NC(=O)c2cnn3ccc(N[C@@H]4CCCC[C@@H]4N)nc23)no1 [Example 288, 5-{[(1R,2S)-2-aminocyclohexyl]amino}-N-[1-methyl-3-(5-methyl-1,2,4-oxadiazol-3-yl)-1H-pyrazol-4-yl]pyrazolo[1,5-a]pyrimidine-3-carboxamide]	10
Cn1cc(NC(=O)c2cnn3ccc(N[C@@H]4CCCC[C@@H]4N)nc23)c(CCF)n1 [Example 289, 5-{[(1R,2S)-2-aminocyclohexyl]amino}-N-[3-(2-fluoroethyl)-1-methyl-1H-pyrazol-4-yl]pyrazolo[1,5-a]pyrimidine-3-carboxamide trifluoroacetate]	3
Cn1cc(NC(=O)c2cnn3ccc(NCCN4CCOCC4)nc23)c(C(F)(F)F)n1 [Example 290, N-[1-methyl-3-(trifluoromethyl)-1H-pyrazol-4-yl]-5-[(2-morpholin-4-ylethyl)amino]pyrazolo[1,5-a]pyrimidine-3-carboxamide trifluoroacetate]	977
CC(C)n1cc(NC(=O)c2cnn3ccc(N[C@@H]4CCCC[C@@H]4N)nc23)c(C(F)(F)F)n1 [Example 291, 5-{[(1R,2S)-2-aminocyclohexyl]amino}-N-[1-(1-methylethyl)-3-(trifluoromethyl)-1H-pyrazol-4-yl]pyrazolo[1,5-a]pyrimidine-3-carboxamide trifluoroacetate]	0.8
N[C@H]1CCCC[C@H]1Nc1ccn2ncc(C(=O)Nc3cn(CC(F)F)nc3C(F)(F)F)c2n1 [Example 292, 5-{[(1R,2S)-2-aminocyclohexyl]amino}-N-[1-(2,2-difluoroethyl)-3-(trifluoromethyl)-1H-pyrazol-4-yl]pyrazolo[1,5-a]pyrimidine-3-carboxamide trifluoroacetate]	0.8
N[C@H]1CCCC[C@H]1Nc1ccn2ncc(C(=O)Nc3cn(C4CC4)nc3C(F)(F)F)c2n1 [Example 293, 5-{[(1R,2S)-2-aminocyclohexyl]amino}-N-[1-cyclopropyl-3-(trifluoromethyl)-1H-pyrazol-4-yl]pyrazolo[1,5-a]pyrimidine-3-carboxamide trifluoroacetate]	0.4
CC(C)(C)n1cc(NC(=O)c2cnn3ccc(N[C@@H]4CCCC[C@@H]4N)nc23)c(C(F)(F)F)n1 [Example 294, 5-{[(1R,2S)-2-aminocyclohexyl]amino}-N-[1-tert-butyl-3-(trifluoromethyl)-1H-pyrazol-4-yl]pyrazolo[1,5-a]pyrimidine-3-carboxamide trifluoroacetate]	1
N[C@H]1CCCC[C@H]1Nc1ccn2ncc(C(=O)Nc3cn(CC(F)(F)F)nc3C(F)(F)F)c2n1 [Example 295, 5-{[(1R,2S)-2-aminocyclohexyl]amino}-N-[1-(2,2,2-trifluoroethyl)-3-(trifluoromethyl)-1H-pyrazol-4-yl]pyrazolo[1,5-a]pyrimidine-3-carboxamide trifluoroacetate]	1
N[C@H]1CCCC[C@H]1Nc1ccn2ncc(C(=O)Nc3cn(C(F)F)nc3C(F)(F)F)c2n1 [Example 296, 5-{[(1R,2S)-2-aminocyclohexyl]amino}-N-[1-(difluoromethyl)-3-(trifluoromethyl)-1H-pyrazol-4-yl]pyrazolo[1,5-a]pyrimidine-3-carboxamide trifluoroacetate]	2
CC(C)n1cc(NC(=O)c2cnn3ccc(N4CCNCC4)nc23)c(C(F)(F)F)n1 [Example 298, N-[1-(1-methylethyl)-3-(trifluoromethyl)-1H-pyrazol-4-yl]-5-piperazin-1-ylpyrazolo[1,5-a]pyrimidine-3-carboxamide trifluoroacetate]	17
O=C(Nc1cn(CC(F)(F)F)nc1C(F)(F)F)c1cnn2ccc(N3CCNCC3)nc12 [Example 299, 5-piperazin-1-yl-N-[1-(2,2,2-trifluoroethyl)-3-(trifluoromethyl)-1H-pyrazol-4-yl]pyrazolo[1,5-a]pyrimidine-3-carboxamide trifluoroacetate]	81
O=C(Nc1cn(C(F)F)nc1C(F)(F)F)c1cnn2ccc(N3CCNCC3)nc12 [Example 300, N-[1-(difluoromethyl)-3-(trifluoromethyl)-1H-pyrazol-4-yl]-5-piperazin-1-ylpyrazolo[1,5-a]pyrimidine-3-carboxamide trifluoroacetate]	55
N[C@H]1CCCC[C@H]1Nc1ccn2ncc(C(=O)Nc3c[nH]nc3C(F)(F)F)c2n1 [Example 301, 5-{[(1R,2S)-2-aminocyclohexyl]amino}-N-[3-(trifluoromethyl)-1H-pyrazol-4-yl]pyrazolo[1,5-a]pyrimidine-3-carboxamide trifluoroacetate]	0.8

From patent US10329294B2, “Pyrazolopyrimidine inhibitors of IRAK4 activity” (MERCK SHARP & DOHME CORP., priority 2015, dated 2019)
